# Entries after “also recorded” stand apart in the source; their conditions may differ. Like-named read-outs stand apart in the source and are kept apart here.
# Experiments:
# hERG ion channels [1] = target: T1, hERG ion channels (Homo sapiens, UniProt Q12809); test: Rb+ flux assay using HEK-hERG cells; conditions: 5 mM KCl, modulators at 10 or 50 micromolar (FIG. 3)
# Method: Briefly, 50,000 cells per well were plated in 96-well tissue culture treated plates 20 hours before assay. In the next day, cells were incubated with complete cell culture medium containing 5 mM RbCl for 3 hours at 37° C. with 5% CO2. Then compounds (10×) diluted in HBSS were added into the cell culture medium and cells were incubated at 37° C. with 5% CO2 for another hour. Cells were washed twice with Rb^+ free cell culture medium and incubated with 180 μl/well of cell culture medium containing different concentration of KCl for exactly 10 minutes. The supernatant from each well was transferred to a new 96 well plate immediately. Cells were lysed with 180 μl/well 0.5% Triton100 in HBSS. The Rb^+ concentration of each sample was determined by ICR8000 (Aurora Biomed Inc.).
# hERG ion channels [2] = target: T1, hERG ion channels
# Description: (§2) Label-free RWG biosensor cellular assays were developed to directly assaying the activation and its subsequent signaling of hERG channels without applying voltages to the cells. […] Generally, the disclosed methods to characterize modulators acting directly through hERG ion channel, or indirectly via hERG-associated signaling complexes are related to label-free biosensor cellular assays. Disclosed is the use of three types of cells: a cancerous cell line endogenously expressing hERG ion channels, a native cell line without endogenous hERG channels and its engineered cell line overexpressing hERG channels, for characterizing hERG modulators. Also disclosed is the use of mallotoxin or other hERG activator as a readout to further confirm the modes of action of hERG modulators.
# (§3) In a specific approach, any compound can be profiled in three different types of cells, HT29, HEK-hERG, and HEK-293 cells, in both agonism and antagonism modes. The human colon cancerous cell line HT-29 is known to endogenously express hERG channels. HEK293 is a native cell line without endogenously expressed hERG channels, while HEK-hERG is an engineered HEK293 cell having stably expressed hERG channels.
# hERG ion channels [3] = target: T1, hERG ion channels; test: DMR antagonism mode: modulation of the mallotoxin DMR signal in HT29 cells; conditions: for score of modulation index, HT29 coordinate: score assigned from % modulation of mallotoxin DMR (10% = 1); for effect on the mallotoxin DMR signal in HT29 cells (in words): antagonism assay
# hERG ion channels [4] = target: T1, hERG ion channels; test: DMR antagonism mode: modulation of the mallotoxin DMR signal in HEK-hERG cells; conditions: for score of modulation index, HEK-hERG coordinate: score assigned from % modulation of mallotoxin DMR (10% = 1); for effect on the mallotoxin DMR signal in HEK-hERG cells (in words): antagonism assay
# hERG ion channels [5] = target: T1, hERG ion channels; test: Label-free biosensor hERG modulator classification from profiles in HT29, HEK-hERG and HEK293 cells plus mallotoxin modulation; conditions: label-free biosensor cellular assays
# Description: as §2, §3
# HT29 = test: Cell proliferation assay (CellTiter-Glo) in HT29; type: cell-based, human; conditions: for cytotoxicity on cancer cell line HT29: 25 micromolar, in vitro culture; for cell apoptosis or alteration in cell proliferation rate, HT29: 48 h exposure
# Method: (§1) Proliferation was measured using the CellTiter-Glo Luminescent Cell Viability Assay (Technical Bulletin #288, Promega, Madison, Wis.). When added to cells, the assay reagent produces luminescence in the presence of ATP from viable cells. Cells were plated in 96-well Corning Costar TCT (tissue culture treated) plates at a density of 10,000 cells/well and incubated for 24 h. Test samples were solubilized in dimethyl sulfoxide (DMSO) by sonication, filter sterilized and diluted with media to the desired treatment concentration. Cells were treated with 100 μl control media, or test samples, and incubated for 48 h drug exposure duration. At the end of 48 h, plates were equilibrated at room temperature for 30 min, 100 μl of the assay reagent was added to each well and cell lysis was induced on an orbital shaker for 2 min. Plates were incubated at room temperature for 10 min to stabilize the luminescence signal and results were read on an Perkin Elmer Vector 3 Microplate Reader. All plates had control wells containing medium without cells to obtain a value for background luminescence. Data are expressed as for three replications.
# MCF7 = test: Cell proliferation assay (CellTiter-Glo) in MCF7; type: cell-based; conditions: 48 h exposure; data not shown
# Method: as §1
# hERG ion channels [6] = target: T1, hERG ion channels; test: Label-free RWG biosensor (Epic) DMR assay, agonism mode, HT29 cells endogenously expressing hERG; conditions: 10 micromolar
# Description: (§4) Using the RWG biosensor Corning® Epic® system, all compounds were systematically characterized for their ability to modulate hERG ion channels in live cells. The Epic® system consists of a temperature-control unit, an optical detection unit, with an on-board liquid handling unit with robotics, or an external liquid accessory system with robotics. The detection unit is centered on integrated fiber optics, and enables kinetic measures of cellular responses with a time interval of ˜7 or 15 sec. The compound solutions were introduced by using either the on-board liquid handling unit, or the external liquid accessory system; both of which use conventional pippetting system.
# (§5) Epic® wavelength interrogation system (Corning Inc., Corning, N.Y.) was used for whole cell sensing. This system consists of a temperature-control unit, an optical detection unit, and an on-board liquid handling unit with robotics. The detection unit is centered on integrated fiber optics, and enables kinetic measures of cellular responses with a time interval of ˜15 sec.
# (§6) Cells were plated in 384-well Epic® cell culture treated plate (Corning Cat#5040) 16-20 hours before assay (15000 cells/well for HEK293 and HEK-hERG cells, 30000 cells/well for HT29 cells). For both HEK-hERG and its parental HEK293 cells, each well was coated with 10 μl 5 μg/ml fibronectin. One hour before assay, cells were washed twice on a BioTek ELx405 Select washer with Hank's Balanced Salt Solution (HBSS) containing 20 mM Hepes. Cells were incubated in 40 μl/well HBSS at 28° C. inside the Epic system for one hour. For each assay, a 2-min baseline was initiated, followed by addition of 10 μl compound solutions (5×) and the cell responses were recorded continuously for one hour.
# (§7) All studies were carried out at a controlled temperature (28° C.). At least two independent sets of experiments, each with at least three replicates, were performed. […] All dose-dependent responses were analyzed using non-linear regression method with the GraphPad Prism 5.
# as §3
# hERG ion channels [7] = target: T1, hERG ion channels; test: Label-free RWG biosensor (Epic) DMR assay, agonism mode, HEK-hERG cells stably expressing hERG; conditions: 10 micromolar
# Description: as §4, §5, §6, §7, §3
# hERG channel = hERG channel (Homo sapiens, UniProt Q12809); test: Automated patch clamp recording using IonWorks, CHO-hERG cells; conditions: 50 micromolar; tail current at -35 mV after +40 mV depolarization
# Method: CHO-K1 cells stably expressing hERG channel (CHO-hERG) were cultured in T175 flask till about 70% confluent. Cells were washed twice with PBS, then 2.5 ml 0.25% Trypsin/EDTA was mixed with 2.5 ml PBS and added to the T175 flask. Cells were incubated about 2 minutes with the diluted Trypsin/EDTA solution at 37° C., then were continuously incubated about 3 minutes at room temperature. 20 ml fresh medium were added to suspend the cells and transfer to a 50 ml tube. Cells were centrifuged down at 750 rpm for 5 minutes. The extra medium was removed and cells were resuspended in 6 ml External Buffer (137 mM NaCl, 4 mM KCl, 1.8 mM CaCl2, 1 mM MgCl2, 10 mM HEPES, 10 mM glucose, pH 7.4). Then cells were centrifuged again at 450 rpm for another 5 minutes. Finally cells were resuspended in 4 ml the External Buffer, cell number was counted using a hemacytometer. Cell suspension was diluted to 2.5×10^6 cells/ml with the External Buffer. 4 ml of the resuspended cells were added to the cell reservoir in IonWorks. The Internal solution used contains: 40 mM KCl, 100 mM K-Gluconate, 3.2 mM MgCl2, 2 mM CaCl2, 5 mM HEPES, pH 7.25 (adjusted with KOH). […]
# hERG currents were recorded on IonWorks Quattro (Molecular Devices). […] Tail currents were measured during an ensuing return to −35 mV. […]
# [8] = molecule 10 micromolar, mallotoxin 16 micromolar
# T1 sequence (Q12809 whole entry): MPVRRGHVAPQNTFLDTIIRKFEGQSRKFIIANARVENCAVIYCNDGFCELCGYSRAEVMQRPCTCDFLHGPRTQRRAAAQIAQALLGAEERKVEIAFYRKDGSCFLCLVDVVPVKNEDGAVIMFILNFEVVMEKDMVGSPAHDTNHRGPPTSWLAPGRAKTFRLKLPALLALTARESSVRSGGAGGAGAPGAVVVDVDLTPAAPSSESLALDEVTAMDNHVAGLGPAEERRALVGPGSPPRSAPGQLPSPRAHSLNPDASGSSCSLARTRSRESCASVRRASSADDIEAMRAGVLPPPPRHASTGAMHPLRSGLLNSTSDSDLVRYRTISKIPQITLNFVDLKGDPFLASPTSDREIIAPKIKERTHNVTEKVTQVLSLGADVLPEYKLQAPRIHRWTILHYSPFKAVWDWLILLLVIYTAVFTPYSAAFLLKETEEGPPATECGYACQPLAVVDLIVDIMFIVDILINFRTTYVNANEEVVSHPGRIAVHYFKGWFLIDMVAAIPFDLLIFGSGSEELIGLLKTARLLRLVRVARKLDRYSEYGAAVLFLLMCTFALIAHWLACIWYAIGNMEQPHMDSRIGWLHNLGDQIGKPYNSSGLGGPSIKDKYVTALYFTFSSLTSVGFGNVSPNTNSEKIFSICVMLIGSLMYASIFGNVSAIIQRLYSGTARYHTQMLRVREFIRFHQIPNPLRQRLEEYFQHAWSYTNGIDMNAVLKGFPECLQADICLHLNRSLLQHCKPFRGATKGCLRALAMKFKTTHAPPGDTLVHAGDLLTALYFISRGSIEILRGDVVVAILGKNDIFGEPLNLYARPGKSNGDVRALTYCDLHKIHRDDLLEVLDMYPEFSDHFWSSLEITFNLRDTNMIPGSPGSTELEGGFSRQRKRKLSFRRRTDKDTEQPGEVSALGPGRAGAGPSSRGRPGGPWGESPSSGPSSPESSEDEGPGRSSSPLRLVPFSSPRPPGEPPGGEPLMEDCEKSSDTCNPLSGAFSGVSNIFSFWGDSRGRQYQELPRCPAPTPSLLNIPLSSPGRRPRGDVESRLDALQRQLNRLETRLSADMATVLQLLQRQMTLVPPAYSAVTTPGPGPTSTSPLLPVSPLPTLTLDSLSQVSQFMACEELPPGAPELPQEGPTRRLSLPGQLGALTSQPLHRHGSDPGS
# Chain of hERG channel (Q12809 whole entry): as above
compound,measurement,setting,value
"CC1=C(C#N)C(=C(C#N)C#N)OC1(C)c1ccc(Cl)cc1Cl (stereo not drawn) [Compound G, 2-dicyanomethylene-3-cyano-4,5-dimethyl-5-[2′,4′-dichlorophenyl]-2,5-dihydrofuran]",melting point,,239 to 240 °C
CN(CCOc1ccc(NS(C)(=O)=O)cc1)CCc1ccc(NS(C)(=O)=O)cc1 [dofetilide],Rb+ flux signal,hERG ion channels [1],suppression
CC1=C/C(=C/C=C/C2=C(C#N)C(=C(C#N)C#N)OC2(C)c2ccc(C3CCCCC3)cc2)CC(C)(C)C1 (stereo not drawn) [Compound I],class of hERG modulator assigned,hERG ion channels [2],label-free biosensor hERG activator
"O=C(O)c1cc(-c2ccc(F)cc2F)ccc1O [diflunisal, reference compound]","score of modulation index, HT29 coordinate",hERG ion channels [3],−9
same,"score of modulation index, HEK-hERG coordinate",hERG ion channels [4],1
O=C(Nc1cc(C(F)(F)F)ccc1O)Nc1cc(C(F)(F)F)ccc1O [NS1643],class of hERG modulator assigned,hERG ion channels [5],label-free biosensor hERG activators
"N#CC(C#N)=Cc1ccc([N+](=O)[O-])c(O)c1 [AG126, reference compound]",class of hERG modulator assigned,hERG ion channels [2],hERG pathway activator
CC1=C(C#N)C(=C(C#N)C#N)OC1(C)C [A],class of hERG modulator assigned,hERG ion channels [2],label-free biosensor hERG activator
"CC1=C(C#N)C(=C(C#N)C#N)OC12CCCCC2 [Compound U, 2-dicyanomethylene-3-cyano-4-methyl-5-spiro-cyclohexyl-2,5-dihydrofuran]",class of hERG modulator assigned,hERG ion channels [2],label-free biosensor hERG activator
same,cytotoxicity on cancer cell line HT29,HT29,did not exhibit cytotoxicity
same,"cell apoptosis or alteration in cell proliferation rate, HT29",HT29,did not lead to cell apoptosis or any alteration in cell proliferation rate
same,"cell apoptosis or alteration in cell proliferation rate, MCF7",MCF7,did not lead to cell apoptosis or any alteration in cell proliferation rate
"COc1ccc2nccc(C(=O)CC[C@@H]3CCN(CC#Cc4cc(F)cc(F)c4F)C[C@@H]3C(=O)O)c2c1 [RPR260243, reference compound]",class of hERG modulator assigned,hERG ion channels [2],label-free biosensor hERG activators
"CCCCc1ccc(C2(C)OC(=C(C#N)C#N)C(C#N)=C2C)cc1 (stereo not drawn) [Compound E, 2-dicyanomethylene-3-cyano-4,5-dimethyl-5-[4′-n-butylphenyl]-2,5-dihydrofuran]",class of hERG modulator assigned,hERG ion channels [2],hERG activators
same,DMR signal in HT29 cells,hERG ion channels [6],robust DMR signals
same,cytotoxicity on cancer cell line HT29,HT29,did not exhibit cytotoxicity
same,"cell apoptosis or alteration in cell proliferation rate, HT29",HT29,did not lead to cell apoptosis or any alteration in cell proliferation rate
same,DMR signal in HEK-hERG cells,hERG ion channels [7],robust DMR signals
same,effect on the mallotoxin DMR signal in HT29 cells (in words),hERG ion channels [3]; [8],attenuated signal
same,effect on the mallotoxin DMR signal in HEK-hERG cells (in words),hERG ion channels [4]; [8],attenuated signal
same,Rb+ flux signal,hERG ion channels [1],small but detectable increase
same,"cell apoptosis or alteration in cell proliferation rate, MCF7",MCF7,did not lead to cell apoptosis or any alteration in cell proliferation rate
CN(CCO)c1ccc(/C=C/C2=C(C#N)C(=C(C#N)C#N)OC2(C)c2c(F)c(F)c(F)c(F)c2F)cc1 (stereo not drawn) [J],class of hERG modulator assigned,hERG ion channels [2],label-free biosensor hERG activator
"O=C(O)c1cccnc1Nc1ccc2c(c1)CN(c1ccc(Cl)c(Cl)c1)C2 [PD-307243, reference compound]",class of hERG modulator assigned,hERG ion channels [2],label-free biosensor hERG activators
"CC1=C(C#N)C(=C(C#N)C#N)OC1(C)c1ccc(Cl)c(Cl)c1 (stereo not drawn) [Compound F, 2-dicyanomethylene-3-cyano-4,5-dimethyl-5-[3′,4′-dichlorophenyl]-2,5-dihydrofuran]",class of hERG modulator assigned,hERG ion channels [2],label-free biosensor hERG activator
CC1=C(C#N)C(=C(C#N)C#N)OC1(C)c1ccc(F)cc1 (stereo not drawn) [C],class of hERG modulator assigned,hERG ion channels [2],label-free biosensor hERG activator
"O=C(O)CC1CCC(c2ccc(-c3cc(C(F)(F)F)[nH]n3)cc2)CC1 (stereo not drawn) [Compound A-935142, reference compound]",class of hERG modulator assigned,hERG ion channels [2],label-free biosensor hERG activators
CC1=C(C#N)C(=C(C#N)C#N)OC1(C)c1ccc(Cl)c(Cl)c1Cl (stereo not drawn) [H],class of hERG modulator assigned,hERG ion channels [2],label-free biosensor hERG activator
"O=C(O)c1ccccc1Nc1ccc(CCc2ccc(Cl)c(Cl)c2)cc1 [PD-118057, reference compound]",class of hERG modulator assigned,hERG ion channels [2],label-free biosensor hERG activators
"CC1=C(C#N)C(=C(C#N)C#N)OC1(C)c1ccc(F)cc1F (stereo not drawn) [Compound D, 2-dicyanomethylene-3-cyano-4,5-dimethyl-5-[2′,4′-difluorophenyl]-2,5-dihydrofuran]",DMR signal in HT29 cells,hERG ion channels [6],robust DMR signals
same,cytotoxicity on cancer cell line HT29,HT29,did not exhibit cytotoxicity
same,"cell apoptosis or alteration in cell proliferation rate, HT29",HT29,did not lead to cell apoptosis or any alteration in cell proliferation rate
same,DMR signal in HEK-hERG cells,hERG ion channels [7],robust DMR signals
same,effect on the mallotoxin DMR signal in HT29 cells (in words),hERG ion channels [3]; [8],attenuated signal
same,effect on the mallotoxin DMR signal in HEK-hERG cells (in words),hERG ion channels [4]; [8],attenuated signal
same,Rb+ flux signal,hERG ion channels [1],small but detectable increase
same,"cell apoptosis or alteration in cell proliferation rate, MCF7",MCF7,did not lead to cell apoptosis or any alteration in cell proliferation rate
CC(=O)c1c(O)c(C)c(O)c(Cc2c(O)c3c(c(C(=O)/C=C/c4ccccc4)c2O)OC(C)(C)C=C3)c1O [mallotoxin],class of hERG modulator assigned,hERG ion channels [5],label free biosensor hERG activator
same,Rb+ flux signal,hERG ion channels [1],significant increase
O=C(O)c1ccccc1Nc1cccc(C(F)(F)F)c1 [flufenamic acid],DMR signal in HT29 cells,hERG ion channels [6],robust DMR signals
same,effect on hERG current (tail current),hERG channel,weak hERG current activator; also recorded: potentiated
same,DMR signal in HEK-hERG cells,hERG ion channels [7],robust DMR signals
same,class of hERG modulator assigned,hERG ion channels [5],"hERG pathway activator, a label free biosensor hERG activator; also recorded: weak hERG activator"
same,modulation index against the mallotoxin DMR signal in HT29,hERG ion channels [3]; [8],−90%
same,effect on the mallotoxin DMR signal in HT29 cells (in words),hERG ion channels [3]; [8],selectively attenuated
same,"score of modulation index, HT29 coordinate",hERG ion channels [3],−9
same,modulation index against the mallotoxin DMR signal in HEK-hERG,hERG ion channels [4]; [8],~+12%
same,"score of modulation index, HEK-hERG coordinate",hERG ion channels [4],1
same,Rb+ flux signal,hERG ion channels [1],weak hERG ion flux activator; also recorded: small and dose-dependent increase
"CC1=C(C#N)C(=C(C#N)C#N)OC1(c1ccccc1)C(F)(F)F (stereo not drawn) [Compound B, 2-dicyanomethylene-3-cyano-4-methyl-5-phenyl-5-perfluoromethyl-2,5-dihydrofuran]",class of hERG modulator assigned,hERG ion channels [2],potent label-free biosensor hERG activator
same,DMR signal in HT29 cells,hERG ion channels [6],robust DMR signals
same,DMR signal in HEK-hERG cells,hERG ion channels [7],robust DMR signals
same,effect on the mallotoxin DMR signal in HT29 cells (in words),hERG ion channels [3]; [8],desensitization
same,effect on the mallotoxin DMR signal in HEK-hERG cells (in words),hERG ion channels [4]; [8],desensitization

# From US20120329865A1, “MOLECULES RELATED hERG ION [sequence] AND THE USE THEREOF” (priority 2009, published 2012)
